{"source": "patent US10968462B2", "about": "“Plants having increased tolerance to herbicides” (BASF AGRO B.V., priority 2013, dated 2021)", "tested_on": "transgenic T2 soybean plants", "assay": "Soybean greenhouse spray test, T2 plants at V2-V3 stage, injury 0-9 point scale 1 or 2 weeks after treatment (Tables 7C-7E)", "format": "in vivo, Glycine max", "settings": "2 week after treatment", "description": "Soybean cv Jake was transformed as previously described by Siminszky et al., Phytochem Rev. 5:445-458 (2006). After regeneration, transformants were transplanted to soil in small pots, placed in growth chambers (16 hr day/8 hr night; 25° C. day/23° C. night; 65% relative humidity; 130-150 microE m-2 s-1) and subsequently tested for the presence of the T-DNA via Taqman analysis. After a few weeks, healthy, transgenic positive, single copy events were transplanted to larger pots and allowed to grow in the growth chamber. An optimal shoot for cutting was about 3-4 inches tall, with at least two nodes present. Each cutting was taken from the original transformant (mother plant) and dipped into rooting hormone powder (indole-3-butyric acid, IBA). The cutting was then placed in oasis wedges inside a bio-dome. The mother plant was taken to maturity in the greenhouse and harvested for seed. Wild type cuttings were also taken simultaneously to serve as negative controls. The cuttings were kept in the bio-dome for 5-7 days and then transplanted to 3 inch pots and then acclimated in the growth chamber for two more days. […] Other herbicides, such as AHAS (ALS—Acetolactate Synthase) inhibiting herbicides were also tested in a similar fashion for confirming cross resistance to other modes of action: Tritosulfuron, Florasulam, Metsulfuron, Rimsulfuron. Herbicide injury evaluations were taken at 2, 7, 14 and 21 days after treatment.\n• 0 No Injury • 1 Minimal injury, only a few patches of leaf injury or chlorosis. • 2 Minimal injury with slightly stronger chlorosis. Overall growth points remain undamaged. • 3 Slightly stronger injury on secondary leaf tissue, but primary leaf and growth points are still undamaged. • 4 Overall plant morphology is slightly different, some chlorosis and necrosis in secondary growth points and leaf tissue. Stems are intact. Regrowth is highly probable within 1 week. • 5 Overall plant morphology is clearly different, some chlorosis and necrosis on a few leaves and growth points, but primary growth point is intact. Stem tissue is still green. Regrowth is highly probably within 1 week. • 6 Strong injury can be seen on the new leaflet growth. Plant has a high probability to survive only through regrowth at different growth points. Most of the leaves are chlorotic/necrotic but stem tissue is still green. May have regrowth but with noticeable injured appearance. • 7 Most of the active growth points are necrotic. There may be a single growth point that could survive and may be partially chlorotic or green and partially necrotic. Two leaves may still be chlorotic with some green; the rest of the plant including stem is necrotic. • 8 Plant will likely die, and all growth points are necrotic. One leaf may still be chlorotic with some green. The remainder of the plant is necrotic. • 9 Plant is dead. • * Not tested", "data": [{"smiles": "COc1ncc(F)c2nc(S(=O)(=O)Nc3c(F)cccc3F)nn12", "note": "[Flurasulam]", "values": [{"measurement": "injury on a 0-9 point scale", "setting": "Bradi_1g07930.1 (Event 1), 0.156 g ai/ha", "value": 0.3}, {"measurement": "injury on a 0-9 point scale", "setting": "Bradi_1g07930.1 (Event 1), 0.3125 g ai/ha", "value": 0.5}, {"measurement": "injury on a 0-9 point scale", "setting": "Bradi_1g07930.1 (Event 1), 0.625 g ai/ha", "value": 2.5}, {"measurement": "injury on a 0-9 point scale", "setting": "Bradi_1g07930.1 (Event 1), Flurasulam 1.25 g ai/ha", "value": 3.0}, {"measurement": "injury on a 0-9 point scale", "setting": "Bradi_1g07930.1 (Event 1), Flurasulam 2.5 g ai/ha", "value": 1.7}, {"measurement": "injury on a 0-9 point scale", "setting": "Bradi_1g07930.1 (Event 1), Flurasulam 5 g ai/ha", "value": 3.3}, {"measurement": "injury on a 0-9 point scale", "setting": "R128A_F420V (Event 1), 0.156 g ai/ha", "value": 0.0}, {"measurement": "injury on a 0-9 point scale", "setting": "R128A_F420V (Event 1), 0.3125 g ai/ha", "value": 3.3}, {"measurement": "injury on a 0-9 point scale", "setting": "R128A_F420V (Event 1), 0.625 g ai/ha", "value": 3.5}, {"measurement": "injury on a 0-9 point scale", "setting": "R128A_F420V (Event 1), Flurasulam 1.25 g ai/ha", "value": 4.5}, {"measurement": "injury on a 0-9 point scale", "setting": "R128A_F420V (Event 1), Flurasulam 2.5 g ai/ha", "value": 6.8}, {"measurement": "injury on a 0-9 point scale", "setting": "R128A_F420V (Event 1), Flurasulam 5 g ai/ha", "value": 6.5}, {"measurement": "injury on a 0-9 point scale", "setting": "R128A_F420V (Event 2), 0.156 g ai/ha", "value": 1.0}, {"measurement": "injury on a 0-9 point scale", "setting": "R128A_F420V (Event 2), 0.3125 g ai/ha", "value": 1.0}, {"measurement": "injury on a 0-9 point scale", "setting": "R128A_F420V (Event 2), 0.625 g ai/ha", "value": 3.5}, {"measurement": "injury on a 0-9 point scale", "setting": "R128A_F420V (Event 2), Flurasulam 1.25 g ai/ha", "value": 5.0}, {"measurement": "injury on a 0-9 point scale", "setting": "R128A_F420V (Event 2), Flurasulam 2.5 g ai/ha", "value": 6.0}, {"measurement": "injury on a 0-9 point scale", "setting": "R128A_F420V (Event 2), Flurasulam 5 g ai/ha", "value": 6.0}, {"measurement": "injury on a 0-9 point scale", "setting": "R128A_F420V + Bradi_1g07930.1 (Event 1), 0.156 g ai/ha", "value": 1.5}, {"measurement": "injury on a 0-9 point scale", "setting": "R128A_F420V + Bradi_1g07930.1 (Event 1), 0.3125 g ai/ha", "value": 2.3}, {"measurement": "injury on a 0-9 point scale", "setting": "R128A_F420V + Bradi_1g07930.1 (Event 1), 0.625 g ai/ha", "value": 3.0}, {"measurement": "injury on a 0-9 point scale", "setting": "R128A_F420V + Bradi_1g07930.1 (Event 1), Flurasulam 1.25 g ai/ha", "value": 3.5}, {"measurement": "injury on a 0-9 point scale", "setting": "R128A_F420V + Bradi_1g07930.1 (Event 1), Flurasulam 2.5 g ai/ha", "value": 3.3}, {"measurement": "injury on a 0-9 point scale", "setting": "R128A_F420V + Bradi_1g07930.1 (Event 1), Flurasulam 5 g ai/ha", "value": 2.5}, {"measurement": "injury on a 0-9 point scale", "setting": "R128A_F420V + Bradi_1g07930.1 (Event 2), 0.156 g ai/ha", "value": 3.3}, {"measurement": "injury on a 0-9 point scale", "setting": "R128A_F420V + Bradi_1g07930.1 (Event 2), 0.3125 g ai/ha", "value": 3.0}, {"measurement": "injury on a 0-9 point scale", "setting": "R128A_F420V + Bradi_1g07930.1 (Event 2), 0.625 g ai/ha", "value": 3.0}, {"measurement": "injury on a 0-9 point scale", "setting": "R128A_F420V + Bradi_1g07930.1 (Event 2), Flurasulam 1.25 g ai/ha", "value": 3.5}, {"measurement": "injury on a 0-9 point scale", "setting": "R128A_F420V + Bradi_1g07930.1 (Event 2), Flurasulam 2.5 g ai/ha", "value": 3.0}, {"measurement": "injury on a 0-9 point scale", "setting": "R128A_F420V + Bradi_1g07930.1 (Event 2), Flurasulam 5 g ai/ha", "value": 3.5}, {"measurement": "injury on a 0-9 point scale", "setting": "wild type, 0.156 g ai/ha", "value": 0.3}, {"measurement": "injury on a 0-9 point scale", "setting": "wild type, 0.3125 g ai/ha", "value": 3.0}, {"measurement": "injury on a 0-9 point scale", "setting": "wild type, 0.625 g ai/ha", "value": 4.0}, {"measurement": "injury on a 0-9 point scale", "setting": "wild type, Flurasulam 1.25 g ai/ha", "value": 5.5}, {"measurement": "injury on a 0-9 point scale", "setting": "wild type, Flurasulam 2.5 g ai/ha", "value": 6.0}, {"measurement": "injury on a 0-9 point scale", "setting": "wild type, Flurasulam 5 g ai/ha", "value": 7.5}]}, {"smiles": "COc1nc(C)nc(=NC(=O)NS(=O)(=O)c2ccccc2C(=O)O)[nH]1", "note": "[Metsulfuron]", "values": [{"measurement": "injury on a 0-9 point scale", "setting": "Bradi_1g07930.1 (Event 1), 1.05 g ai/ha", "value": 1.0}, {"measurement": "injury on a 0-9 point scale", "setting": "Bradi_1g07930.1 (Event 1), 2.1 g ai/ha", "value": 0.7}, {"measurement": "injury on a 0-9 point scale", "setting": "Bradi_1g07930.1 (Event 1), 4.2 g ai/ha", "value": 2.3}, {"measurement": "injury on a 0-9 point scale", "setting": "Bradi_1g07930.1 (Event 1), 8.4 g ai/ha", "value": 3.3}, {"measurement": "injury on a 0-9 point scale", "setting": "R128A_F420V (Event 1), 1.05 g ai/ha", "value": 8.0}, {"measurement": "injury on a 0-9 point scale", "setting": "R128A_F420V (Event 1), 2.1 g ai/ha", "value": 8.0}, {"measurement": "injury on a 0-9 point scale", "setting": "R128A_F420V (Event 1), 4.2 g ai/ha", "value": 8.0}, {"measurement": "injury on a 0-9 point scale", "setting": "R128A_F420V (Event 1), 8.4 g ai/ha", "value": 8.7}, {"measurement": "injury on a 0-9 point scale", "setting": "R128A_F420V (Event 2), 1.05 g ai/ha", "value": 8.0}, {"measurement": "injury on a 0-9 point scale", "setting": "R128A_F420V (Event 2), 2.1 g ai/ha", "value": 9.0}, {"measurement": "injury on a 0-9 point scale", "setting": "R128A_F420V (Event 2), 4.2 g ai/ha", "value": 8.7}, {"measurement": "injury on a 0-9 point scale", "setting": "R128A_F420V (Event 2), 8.4 g ai/ha", "value": 9.0}, {"measurement": "injury on a 0-9 point scale", "setting": "R128A_F420V + Bradi_1g07930.1 (Event 1), 1.05 g ai/ha", "value": 2.7}, {"measurement": "injury on a 0-9 point scale", "setting": "R128A_F420V + Bradi_1g07930.1 (Event 1), 2.1 g ai/ha", "value": 3.0}, {"measurement": "injury on a 0-9 point scale", "setting": "R128A_F420V + Bradi_1g07930.1 (Event 1), 4.2 g ai/ha", "value": 4.0}, {"measurement": "injury on a 0-9 point scale", "setting": "R128A_F420V + Bradi_1g07930.1 (Event 1), 8.4 g ai/ha", "value": 4.3}, {"measurement": "injury on a 0-9 point scale", "setting": "R128A_F420V + Bradi_1g07930.1 (Event 2), 1.05 g ai/ha", "value": 3.0}, {"measurement": "injury on a 0-9 point scale", "setting": "R128A_F420V + Bradi_1g07930.1 (Event 2), 2.1 g ai/ha", "value": 3.7}, {"measurement": "injury on a 0-9 point scale", "setting": "R128A_F420V + Bradi_1g07930.1 (Event 2), 4.2 g ai/ha", "value": 3.0}, {"measurement": "injury on a 0-9 point scale", "setting": "R128A_F420V + Bradi_1g07930.1 (Event 2), 8.4 g ai/ha", "value": 3.0}, {"measurement": "injury on a 0-9 point scale", "setting": "wild type, 1.05 g ai/ha", "value": 8.5}, {"measurement": "injury on a 0-9 point scale", "setting": "wild type, 2.1 g ai/ha", "value": 8.3}, {"measurement": "injury on a 0-9 point scale", "setting": "wild type, 4.2 g ai/ha", "value": 8.8}, {"measurement": "injury on a 0-9 point scale", "setting": "wild type, 8.4 g ai/ha", "value": 8.5}]}]}
